Assay results published in PubChem BioAssay AID1918996 (Molecular Pharmacology Branch, DTP, NCI, 2023).
Values joined by “and” are separate entries in the source; they are usually repeats but may differ in a detail not shown here. Identical values can stand only once. Blank lines part the entries; values can stand above or below the compound they belong to.

System: 349418-098-R-PDC complex spheroid growth
Assay: Anticancer human tumor 349418-098-R-PDC patient-derived lung adenocarcinoma cell line growth inhibition [AhR]
Conditions: for viability, T/C: stronger effect = lower value
Procedure, shortened: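 Spheroids combined tumor cells with HUVEC endothelial cells and human MSCs as stroma. AhR antagonists were paired with standard or investigational drugs, each dosed in half-log steps down from near clinical Cmax, or from 10 microM where Cmax was unknown.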

[1] = curve of first compound, second compound 0.1 µM
[2] = curve of first compound, second compound 0.316 µM
[3] = curve of first compound, second compound 1 µM
[4] = curve of first compound, second compound 3.16 µM
[5] = curve of first compound, second compound 10 µM
[6] = second compound 0.1 µM, first compound 0.000949 µM
[7] = second compound 0.1 µM, first compound 0.003 µM
[8] = second compound 0.1 µM, first compound 0.00949 µM
[9] = second compound 0.1 µM, first compound 0.03 µM
[10] = second compound 0.1 µM, first compound 0.0949 µM
[11] = second compound 0.1 µM, first compound 0.3 µM
[12] = second compound 0.316 µM, first compound 0.000949 µM
[13] = second compound 0.316 µM, first compound 0.003 µM
[14] = second compound 0.316 µM, first compound 0.00949 µM
[15] = second compound 0.316 µM, first compound 0.03 µM
[16] = second compound 0.316 µM, first compound 0.0949 µM
[17] = second compound 0.316 µM, first compound 0.3 µM
[18] = second compound 1 µM, first compound 0.000949 µM
[19] = second compound 1 µM, first compound 0.003 µM
[20] = second compound 1 µM, first compound 0.00949 µM
[21] = second compound 1 µM, first compound 0.03 µM
[22] = second compound 1 µM, first compound 0.0949 µM
[23] = second compound 1 µM, first compound 0.3 µM
[24] = second compound 3.16 µM, first compound 0.000949 µM
[25] = second compound 3.16 µM, first compound 0.003 µM
[26] = second compound 3.16 µM, first compound 0.00949 µM
[27] = second compound 3.16 µM, first compound 0.03 µM
[28] = second compound 3.16 µM, first compound 0.0949 µM
[29] = second compound 3.16 µM, first compound 0.3 µM
[30] = second compound 10 µM, first compound 0.000949 µM
[31] = second compound 10 µM, first compound 0.003 µM
[32] = second compound 10 µM, first compound 0.00949 µM
[33] = second compound 10 µM, first compound 0.03 µM
[34] = second compound 10 µM, first compound 0.0949 µM
[35] = second compound 10 µM, first compound 0.3 µM
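Also: spheroids exposed to agents for seven days before luminescence viability read.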
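For viability, T/C in this document: spheroids also contain HUVEC endothelial cells and human MSC stroma.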

IC50 [1]: > 10 µM
IC50 [2]: > 10 µM
IC50 [3]: > 10 µM
IC50 [4]: < 0.0316 µM
IC50 [5]: < 0.0316 µM
Compound: CC(C)c1c(-c2ccccc2)nc2c(C#N)c[nH]n2c1=O + Cc1cncc(-c2nc(NCCc3c[nH]c4ccccc34)c3ncn(C(C)C)c3n2)c1
viability, T/C (second compound 0.1 µM, first compound 0.0316 µM): 102%
viability, T/C (second compound 0.1 µM, first compound 0.1 µM): 94.6%
viability, T/C (second compound 0.1 µM, first compound 0.316 µM): 97.9%
viability, T/C (second compound 0.1 µM, first compound 1 µM): 97.2%
viability, T/C (second compound 0.1 µM, first compound 3.16 µM): 97%
viability, T/C (second compound 0.1 µM, first compound 10 µM): 101%
viability, T/C (second compound 0.316 µM, first compound 0.0316 µM): 96.8%
viability, T/C (second compound 0.316 µM, first compound 0.1 µM): 82.4%
viability, T/C (second compound 0.316 µM, first compound 0.316 µM): 105%
viability, T/C (second compound 0.316 µM, first compound 1 µM): 93.2%
viability, T/C (second compound 0.316 µM, first compound 3.16 µM): 83.3%
viability, T/C (second compound 0.316 µM, first compound 10 µM): 95.2%
viability, T/C (second compound 1 µM, first compound 0.0316 µM): 94.1%
viability, T/C (second compound 1 µM, first compound 0.1 µM): 87%
viability, T/C (second compound 1 µM, first compound 0.316 µM): 83.6%
viability, T/C (second compound 1 µM, first compound 1 µM): 85.9%
viability, T/C (second compound 1 µM, first compound 3.16 µM): 78.6%
viability, T/C (second compound 1 µM, first compound 10 µM): 83.7%
viability, T/C (second compound 3.16 µM, first compound 0.0316 µM): 15.8%
viability, T/C (second compound 3.16 µM, first compound 0.1 µM): 16.5%
viability, T/C (second compound 3.16 µM, first compound 0.316 µM): 17.4%
viability, T/C (second compound 3.16 µM, first compound 1 µM): 12.2%
viability, T/C (second compound 3.16 µM, first compound 3.16 µM): 11.3%
viability, T/C (second compound 3.16 µM, first compound 10 µM): 12.6%
viability, T/C (second compound 10 µM, first compound 0.0316 µM): 0.96%
viability, T/C (second compound 10 µM, first compound 0.1 µM): 1.33%
viability, T/C (second compound 10 µM, first compound 0.316 µM): 1.19%
viability, T/C (second compound 10 µM, first compound 1 µM): 0.58%
viability, T/C (second compound 10 µM, first compound 3.16 µM): 0.81%
viability, T/C (second compound 10 µM, first compound 10 µM): 1.09%

IC50 (curve of compound): 0.572 µM and 0.231 µM and 0.199 µM
Compound: NS(=O)(=O)OCC1CC(n2ccc3c(NC4CCc5ccccc54)ncnc32)CC1O (stereo not drawn)
viability, T/C (compound 0.0316 µM): 94% and 96.6% and 72.3%
viability, T/C (compound 0.1 µM): 96.1% and 79.4% and 73.2%
viability, T/C (compound 0.316 µM): 72.6% and 35.4% and 34.8%
viability, T/C (compound 1 µM): 27.8% and 25.5% and 21.3%
viability, T/C (compound 3.16 µM): 15.2% and 12.5% and 14%
viability, T/C (compound 10 µM): 6.38% and 8.08% and 8.54%

IC50 [1]: 0.00141 µM
IC50 [2]: 0.00128 µM
IC50 [3]: 0.00106 µM
IC50 [4]: < 0.000949 µM
IC50 [5]: < 0.000949 µM
Compound: CC(C)CC(NC(=O)C(Cc1ccccc1)NC(=O)c1cnccn1)B(O)O (stereo not drawn) + Cc1cncc(-c2nc(NCCc3c[nH]c4ccccc34)c3ncn(C(C)C)c3n2)c1
viability, T/C [6]: 70.6%
viability, T/C [7]: 11.2%
viability, T/C [8]: 1.67%
viability, T/C [9]: 0.88%
viability, T/C [10]: 0.78%
viability, T/C [11]: 0.75%
viability, T/C [12]: 64.6%
viability, T/C [13]: 8.44%
viability, T/C [14]: 1.59%
viability, T/C [15]: 0.9%
viability, T/C [16]: 0.92%
viability, T/C [17]: 0.62%
viability, T/C [18]: 54.1%
viability, T/C [19]: 9.85%
viability, T/C [20]: 1.7%
viability, T/C [21]: 0.85%
viability, T/C [22]: 0.77%
viability, T/C [23]: 1.06%
viability, T/C [24]: 20.6%
viability, T/C [25]: 5.89%
viability, T/C [26]: 1.01%
viability, T/C [27]: 0.57%
viability, T/C [28]: 0.58%
viability, T/C [29]: 0.62%
viability, T/C [30]: 2.07%
viability, T/C [31]: 1.16%
viability, T/C [32]: 0.23%
viability, T/C [33]: 0.14%
viability, T/C [34]: 0.11%
viability, T/C [35]: 0.15%

IC50 [1]: < 0.000949 µM
IC50 [2]: < 0.000949 µM
IC50 [3]: < 0.000949 µM
IC50 [4]: < 0.000949 µM
IC50 [5]: < 0.000949 µM
Compound: CCc1c2c(nc3ccc(O)cc13)-c1cc3c(c(=O)n1C2)COC(=O)[C@]3(O)CC + Cc1cncc(-c2nc(NCCc3c[nH]c4ccccc34)c3ncn(C(C)C)c3n2)c1
viability, T/C [6]: 49.5%
viability, T/C [7]: 24.2%
viability, T/C [8]: 6.34%
viability, T/C [9]: 3.54%
viability, T/C [10]: 2.3%
viability, T/C [11]: 1.59%
viability, T/C [12]: 47.7%
viability, T/C [13]: 16.8%
viability, T/C [14]: 5.66%
viability, T/C [15]: 3.5%
viability, T/C [16]: 2.11%
viability, T/C [17]: 1.51%
viability, T/C [18]: 41.9%
viability, T/C [19]: 14.4%
viability, T/C [20]: 5.54%
viability, T/C [21]: 3.53%
viability, T/C [22]: 2.48%
viability, T/C [23]: 1.41%
viability, T/C [24]: 12.8%
viability, T/C [25]: 6.98%
viability, T/C [26]: 3.19%
viability, T/C [27]: 2.37%
viability, T/C [28]: 1.61%
viability, T/C [29]: 1.27%
viability, T/C [30]: 1.19%
viability, T/C [31]: 1.44%
viability, T/C [32]: 0.76%
viability, T/C [33]: 0.65%
viability, T/C [34]: 0.41%
viability, T/C [35]: 0.29%

IC50 (curve of compound): 0.72 µM and 0.731 µM and 0.657 µM
Compound: O=C(C=Cc1cccc(S(=O)(=O)Nc2ccccc2)c1)NO
viability, T/C (compound 0.0316 µM): 81.9% and 112% and 124%
viability, T/C (compound 0.1 µM): 83.5% and 128% and 78%
viability, T/C (compound 0.316 µM): 60.7% and 73.3% and 78.8%
viability, T/C (compound 1 µM): 48.6% and 42.6% and 41.5%
viability, T/C (compound 3.16 µM): 13.1% and 11.2% and 10.6%
viability, T/C (compound 10 µM): 2.17% and 1.85% and 2.27%

IC50 (curve of compound): 5.04 µM and 1.51 µM and 1.46 µM
Compound: CC1COCCN1c1cc(C2(S(C)(=N)=O)CC2)nc(-c2ccnc3[nH]ccc23)n1 (stereo not drawn)
viability, T/C (compound 0.0316 µM): 101% and 113% and 96.1%
viability, T/C (compound 0.1 µM): 102% and 81.9% and 78.6%
viability, T/C (compound 0.316 µM): 102% and 125% and 74.4%
viability, T/C (compound 1 µM): 100% and 62.9% and 65.1%
viability, T/C (compound 3.16 µM): 73% and 40.4% and 28.4%
viability, T/C (compound 10 µM): 16.1% and 13.5% and 12.1%

IC50 [1]: > 3 µM
IC50 [2]: > 3 µM
IC50 [3]: 1.55 µM
IC50 [4]: 1.45 µM
IC50 [5]: 0.154 µM
Compound: CCN(c1cc(-c2ccc(CN3CCOCC3)cc2)cc(C(=O)NCc2c(C)cc(C)[nH]c2=O)c1C)C1CCOCC1 + Cc1ccccc1N=Nc1ccc(NC(=O)c2ccnn2C)c(C)c1
viability, T/C [8]: 68.2%
viability, T/C [9]: 97.2%
viability, T/C [10]: 67.4%
viability, T/C [11]: 56.3%
viability, T/C (second compound 0.1 µM, first compound 0.949 µM): 86.4%
viability, T/C (second compound 0.1 µM, first compound 3 µM): 53.1%
viability, T/C [14]: 101%
viability, T/C [15]: 69.1%
viability, T/C [16]: 95.9%
viability, T/C [17]: 72.4%
viability, T/C (second compound 0.316 µM, first compound 0.949 µM): 70.4%
viability, T/C (second compound 0.316 µM, first compound 3 µM): 64%
viability, T/C [20]: 87.8%
viability, T/C [21]: 121%
viability, T/C [22]: 85.5%
viability, T/C [23]: 78.3%
viability, T/C (second compound 1 µM, first compound 0.949 µM): 56.5%
viability, T/C (second compound 1 µM, first compound 3 µM): 42%
viability, T/C [26]: 76.8%
viability, T/C [27]: 68.9%
viability, T/C [28]: 75.2%
viability, T/C [29]: 59%
viability, T/C (second compound 3.16 µM, first compound 0.949 µM): 55.8%
viability, T/C (second compound 3.16 µM, first compound 3 µM): 42.3%
viability, T/C [32]: 59.4%
viability, T/C [33]: 71.1%
viability, T/C [34]: 54.9%
viability, T/C [35]: 38.4%
viability, T/C (second compound 10 µM, first compound 0.949 µM): 49.2%
viability, T/C (second compound 10 µM, first compound 3 µM): 42.1%

IC50 (curve of compound): > 0.1 µM
Compound: Cn1ncnc1C1c2n[nH]c(=O)c3cc(F)cc(c23)NC1c1ccc(F)cc1 (stereo not drawn)
viability, T/C (compound 0.000316 µM): 100% and 74.1% and 70.2%
viability, T/C (compound 0.001 µM): 102% and 101% and 105%
viability, T/C (compound 0.00316 µM): 99.4% and 111% and 92.2%
viability, T/C (compound 0.01 µM): 93.1% and 74.3% and 87%
viability, T/C (compound 0.0316 µM): 87.6% and 97.2% and 84.1%
viability, T/C (compound 0.1 µM): 90.1% and 98.5% and 63.7%
